Experimental findings from patent US12290535B2, “Langerin+ cell targeting” (Max-Planck-Gesellschaft zur Förderung der Wissenschaften …, priority 2018, dated 2025) are described below.

Test [1] addresses T1, DC-SIGN CRD (Homo sapiens, UniProt Q9NNX6).
T1 construct: residues 205 to 404; TEV site (C); StreptagII (C); made in house; host or cells: E. coli BL21* (DE3)
T1 sequence (Q9NNX6 250-404): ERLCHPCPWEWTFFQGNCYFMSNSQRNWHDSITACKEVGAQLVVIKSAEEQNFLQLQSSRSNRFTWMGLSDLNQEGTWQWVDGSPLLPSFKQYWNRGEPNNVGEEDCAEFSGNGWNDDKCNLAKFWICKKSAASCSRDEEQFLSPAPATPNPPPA
In words: 19F R2-filtered NMR reporter displacement assay transferred to DC-SIGN. The test is classed as binding. The note with it: 19F R2-filtered NMR, DC-SIGN CRD 50 μM, pH 7.0, 25° C. The procedure: (§1) Langerin and DC-SIGN carbohydrate recognition domain. Expression and purification were conducted as previously published. Briefly, the monomeric ^15N-labeled Langerin and DC-SIGN carbohydrate recognition domains (CRDs) were expressed insolubly in E. coli BL21* (DE3) (Invitrogen). Following enzymatic cell lysis, inclusion bodies were harvested and subsequently solubilized. The sample was centrifuged and the Langerin and DC-SIGN CRDs were refolded overnight via rapid dilution. Next, the sample was dialyzed overnight, centrifuged and purified via StrepTactin affinity chromatography (Iba). After an additional dialysis step overnight, the sample was centrifuged and the buffer was exchanged to 25 mM HEPES with 150 mM NaCl at pH 7.0 using 7 kDa size-exclusion desalting columns (Thermo Scientific) for ^19F R2-filtered and ^15N HSQC NMR experiments. The concentration of Langerin and DC-SIGN CRDs was determined via UV spectroscopy (A280, 0.1%=3.19 and A280, 0.1%=2.98). Purity and monodispersity of Langerin and DC-SIGN CRD samples were analyzed via SDS PAGE and DLS.
(§2) General remarks. ^19F R2-filtered NMR experiments were conducted on a PremiumCompact 600 MHz spectrometer (Agilent). […] Apparent relaxation rates R2,obs for the reporter ligand were determined using the CPMG pulse sequence as previously published (Wamhoff, E. C. et al. (19)F Nmr-Guided Design of Glycomimetic Langerin Ligands. ACS Chem Biol, 11, 2407-13 (2016): Carr, H. Y. & Purcell, E. M. Effects of Diffusion on Free Precession in Nuclear Magnetic Resonance Experiments. Phys Rev, 94, 630-638 (1954); Meiboom, S. & Gill, D. Modified Spin-Echo Method for Measuring Nuclear Relaxation Times. Rev Sci Instrum 29, 688-691 (1958)).
(§3) Assay development for DC-SIGN. […] Briefly, the KD value and the relaxation rate in bound state R2,b were determined at five concentrations [L]T of reporter ligand 24 in three independent titration experiments. […]
(§4) Ki determination. Ki values were determined as previously published for Langerin (Wamhoff, E. C. et al. (19)F NMR-Guided Design of Glycomimetic Langerin Ligands. ACS Chem Biol 11, 2407-13 (2016)). […]

In test [2] the test system is DC-SIGN CRD. The test is described as above. The test is classed as binding. As to conditions: Ki Langerin compared to Ki DC-SIGN. The procedure: as §1, §2, §3, §4

Consider `CC(=O)NCCO[C@H]1O[C@H](CO)[C@@H](O)[C@H](O)[C@@H]1O` [Man analog 21], for which the Ki in test [1] is 2700 ± 300 µM. Besides, in test [2], the “specificity for DC-SIGN over Langerin” value came to 3.7 fold.

What is called Ki is a measure of affinity in units of concentration, obtained from inhibition or displacement.
